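These data come from cells grown in 96-well plates and exposed to compound for 48 hours at five concentrations. Abbreviation: GI50, concentration required for 50% inhibition of growth. TGI is the concentration that stops growth completely.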
Legend:
Experiment in all cases: NCI anticancer screen, dose series, 48 h
[1] = system: ACHN renal
[2] = system: NCI-H226 lung
[3] = system: NCI-H460 lung
[4] = system: NCI-H522 lung
[5] = system: U251 CNS
[6] = system: UO-31 renal
[7] = system: SK-MEL-5 melanoma
[8] = system: SR leukemia
[9] = system: BT-549 breast

CCOC(=O)NC(=O)c1cn(C2CCCCC2)c(=O)[nH]c1=O
TGI [1]: > 100 µM | TGI [2]: > 100 µM | TGI [3]: > 100 µM | TGI [4]: > 100 µM | TGI [5]: > 100 µM | TGI [6]: > 100 µM

CC(C)CCC[C@@H](C)C1CCC2[C@@H]3CC=C4C[C@@H](C(=O)NCCN(C)C)CC[C@]4(C)C3CC[C@@]21C (stereo not given in full)
TGI [1]: > 100 µM | TGI [2]: 51.4 µM | TGI [3]: > 100 µM | TGI [4]: > 100 µM | TGI [5]: 77.4 µM | TGI [6]: 55.1 µM

O=C(N/C(=C\c1ccc([N+](=O)[O-])cc1)c1nc2ccccc2[nH]1)c1ccccc1
TGI [1]: > 100 µM | TGI [3]: > 100 µM | TGI [4]: > 100 µM | TGI [7]: > 100 µM | TGI [5]: > 100 µM | TGI [6]: > 100 µM

CC(C)(C)c1ccc2c(c1)S(=O)(=O)Nc1ccc(Cl)cc1NS(=O)(=O)c1cc(C(C)(C)C)ccc1OCCOCCOCCO2
TGI [1]: > 100 µM | TGI [2]: > 100 µM | TGI [3]: > 100 µM | TGI [7]: > 100 µM | TGI [5]: > 100 µM | TGI [6]: > 100 µM

O=C(CC(=O)C1CCOC1=O)C(=O)Nc1cccc(Cl)c1 (stereo not given)
TGI [1]: > 100 µM | TGI [2]: > 100 µM | TGI [3]: > 100 µM | TGI [4]: > 100 µM | TGI [7]: > 100 µM | TGI [5]: > 100 µM | TGI [6]: > 100 µM

Nc1ccccc1C(=O)/C=C/c1c(O)ccc2ccccc12
TGI [1]: > 100 µM | TGI [2]: > 100 µM | TGI [3]: > 100 µM | TGI [4]: > 100 µM | TGI [7]: > 100 µM | TGI [8]: > 100 µM | TGI [5]: > 100 µM | TGI [6]: > 100 µM

CC1=NN(C(=O)CC(=O)Nc2ccccc2F)C(=O)C1N=Nc1ccccc1[N+](=O)[O-] (stereo not given)
TGI [2]: > 100 µM | TGI [4]: > 100 µM | TGI [7]: 33.5 µM | TGI [5]: > 100 µM | TGI [6]: > 100 µM

Cc1ccccc1C1=[N+]([O-])c2ccc(Cl)cc2C1=O
TGI [1]: 25.5 µM | TGI [2]: 30.6 µM | TGI [3]: 30.9 µM | TGI [4]: 23.9 µM | TGI [7]: 26.7 µM | TGI [8]: 64.2 µM | TGI [5]: 32 µM | TGI [6]: 31.2 µM

COc1cccc(/C=N/[N-]C(=O)c2ccncc2)c1[O-].COc1cccc(/C=N/[N-]C(=O)c2ccncc2)c1[O-].[O]=[U](=[O])([OH2+])[OH2+]
GI50 [1]: 3.79 µM | TGI [1]: 27.7 µM | GI50 [2]: 5.01 µM | TGI [2]: 28 µM | GI50 [3]: 3.46 µM | TGI [3]: > 40.3 µM | GI50 [4]: 2.05 µM | TGI [4]: 11 µM | GI50 [7]: 11.6 µM | TGI [7]: > 100 µM | GI50 [8]: 3.37 µM | TGI [8]: > 100 µM | GI50 [5]: 4.34 µM | TGI [5]: 40.8 µM | GI50 [6]: 3.45 µM | TGI [6]: 20 µM

COc1ccc(CC2c3c(cc(OC)c(OC)c3OC)CCN2C)cc1OC (stereo not given)
TGI [1]: > 100 µM | TGI [3]: > 100 µM | TGI [4]: > 100 µM | TGI [7]: > 100 µM | TGI [5]: > 100 µM | TGI [6]: > 100 µM

O=C(Cc1nc2c3c(ccc2[nH]c1=O)C(=O)c1ccccc1C3=O)C(=O)Nc1ccccc1[N+](=O)[O-]
TGI [1]: 33.9 µM | TGI [2]: 40.5 µM | TGI [3]: 97.6 µM | TGI [4]: 18 µM | TGI [7]: 37.3 µM | TGI [8]: 51.1 µM | TGI [5]: 32 µM | TGI [6]: > 100 µM

Cc1cc2c(c(C(N)=O)c1C)-c1ccccc1C2=O
TGI [1]: > 100 µM | TGI [3]: > 100 µM | TGI [4]: > 100 µM | TGI [5]: > 100 µM | TGI [6]: > 100 µM

CC(C)=C1CCC(CN(C)C)C1=O (stereo not given)
TGI [1]: 31.5 µM | TGI [3]: > 100 µM | TGI [4]: 0.4 µM | TGI [7]: 32.9 µM | TGI [8]: 36.5 µM | TGI [5]: > 100 µM | TGI [6]: > 100 µM

COC(=O)/C(=N/O)C(C(=O)C=C(C)C)C(=O)C(=O)Nc1nc2ccc([N+](=O)[O-])cc2s1 (stereo not given)
TGI [1]: 67.1 µM | TGI [2]: 72.1 µM | TGI [3]: > 100 µM | TGI [4]: > 100 µM | TGI [7]: > 100 µM | TGI [8]: > 100 µM | TGI [5]: > 100 µM | TGI [6]: 92.8 µM

O=C1NCCS(=O)(=O)N[C@@H](CC2=CC=CCC2)C(=O)N2CCCC12 (stereo not given in full)
TGI [1]: > 100 µM | TGI [2]: > 100 µM | TGI [3]: > 100 µM | TGI [4]: > 100 µM | TGI [7]: > 100 µM | TGI [8]: > 100 µM | TGI [5]: > 100 µM | TGI [6]: > 100 µM

Cn1cc(-c2csc(-c3cn(CCCCN4CCCCC4)c4ccccc34)n2)c2cccnc21
GI50 [1]: 1.67 µM | TGI [1]: 3.03 µM | GI50 [9]: 1.75 µM | TGI [9]: 3.37 µM | GI50 [3]: 1.83 µM | TGI [3]: 3.44 µM | GI50 [6]: 1.51 µM | TGI [6]: 2.95 µM

O=[N+]([O-])c1cccc(C2=NOC(C3CCCCC3)C2)c1 (stereo not given)
TGI [1]: > 100 µM | TGI [2]: > 100 µM | TGI [3]: > 100 µM | TGI [4]: > 100 µM | TGI [7]: > 100 µM | TGI [5]: > 100 µM | TGI [6]: > 100 µM

— PubChem BioAssay (NCI)
